From patent US20100298141A1, “SUBSTITUTED PYRIDINE N-OXIDE HERBICIDES” (E. I. DU PONT DE NEMOURS AND COMPANY, priority 2007, published 2010)

Columns and labels:
[1] = system: umbrella sedge; experiment: Test C flooded paddy test; type: in vivo, Cyperus difformis; settings: Flood
Procedure, shortened: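 Greenhouse pots flooded to 3 cm above soil at time of treatment received compound via the water, which stayed at that level.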

[2] = system: crabgrass; experiment: Test C pre-/postemergence test; type: in vivo, Digitaria sanguinalis; settings: Postemergence; for Plant response rating (0 to 100), Crabgrass, Large: 31 g ai/ha; for Plant response rating, Crabgrass, Large: scale 0 to 100, 0 no effect, 100 complete control
Excerpt: (§1) Seeds of plant species selected from blackgrass (Alopecurus myosuroides), downy brome (Bromus tectorum), green foxtail (Setaria viridis), Italian ryegrass (Lolium multiflorum), wheat (Triticum aestivum), wild oat (Avena fatua), catchweed bedstraw (Galium aparine), Russian thistle (Salsola kali), […] (Cynodon dactylon), Surinam grass (Brachiaria decumbens), cocklebur (Xanthium strumarium), corn (Zea mays), crabgrass (Digitaria sanguinalis), woolly cupgrass (Eriochloa villosa), giant foxtail (Setaria faberii), Goosegrass (Eleusin indica), johnsongrass (Sorghum halepense), kochia (Kochia scoparia), lambsquarters (Chenopodium album), morningglory (Ipomoea coccinea), eastern black nightshade (Solanum ptycanthum), yellow nutsedge (Cyperus esculentus), pigweed (Amaranthus retroflexus), common ragweed (Ambrosia elation), soybean (Glycine max), common (oilseed) sunflower (Helianthus annuus), and velvetleaf (Abutilon theophrasti) were planted and treated preemergence with test chemicals formulated in a non-phytotoxic solvent mixture which included a surfactant. At the same time, plants selected from these crop and weed species and also winter barley (Hordeum vulgare), canarygrass (Phalaris minor), and chickweed (Stellaria media) were treated with postemergence applications of some of the test chemicals formulated in the same manner. Plants ranged in height from 2 to 18 cm (1- to 4-leaf stage) for postemergence treatments. […] At time of treatment, test pots were flooded to 3 cm above the soil surface, treated by application of test compounds directly to the paddy water, and then maintained at that water depth for the duration of the test. […] A dash (-) response means no test result.

[3] = system: velvetleaf; experiment: Test C pre-/postemergence test; type: in vivo, Abutilon theophrasti; settings: Postemergence; for Plant response rating, Velvetleaf: scale 0 to 100, 0 no effect, 100 complete control
Excerpt: as §1

[4] = system: wheat; experiment: Test A pre-/postemergence greenhouse test; type: in vivo, Triticum aestivum; settings: for Plant response rating, Wheat: 0 to 100 scale where 0 is no effect and 100 is complete control; for Wheat plant response rating: 0 to 100 scale
Procedure, shortened: (§2)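 Each test compound, dissolved in a non-phytotoxic solvent mixture with surfactant, was sprayed directly onto seeded soil (loam/sand blend) and, at the same moment, onto seedlings carrying one to two leaves. Around ten greenhouse days later, plants were rated visually for injury relative to untreated controls.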

[5] = system: barnyardgrass; experiment: Test A pre-/postemergence greenhouse test; type: in vivo, Echinochloa crus-galli; settings: for Plant response rating, Barnyardgrass: 0 to 100 scale where 0 is no effect and 100 is complete control; for Barnyardgrass plant response rating: 0 to 100 scale
Procedure, shortened: as §2

[6] = system: Surinam grass; experiment: Test C pre-/postemergence test; type: in vivo, Brachiaria decumbens; settings: Postemergence; for Plant response rating, Surinam Grass: scale 0 to 100, 0 no effect, 100 complete control
Excerpt: as §1

[7] = system: corn; experiment: Test C pre-/postemergence test; type: in vivo, Zea mays; settings: Postemergence; for Plant response rating (0 to 100), Corn: 31 g ai/ha; for Plant response rating, Corn: scale 0 to 100, 0 no effect, 100 complete control
Excerpt: as §1

[8] = system: Italian ryegrass; experiment: Test C pre-/postemergence test; type: in vivo, Lolium multiflorum; settings: Postemergence; for Plant response rating, Ryegrass, Italian: scale 0 to 100, 0 no effect, 100 complete control
Excerpt: as §1

[9] = system: pigweed; experiment: Test C pre-/postemergence test; type: in vivo, Amaranthus retroflexus; settings: Postemergence; for Plant response rating, Pigweed: scale 0 to 100, 0 no effect, 100 complete control
Excerpt: as §1

[10] = system: johnsongrass; experiment: Test C pre-/postemergence test; type: in vivo, Sorghum halepense; settings: Postemergence; for Plant response rating (0 to 100), Johnsongrass: 31 g ai/ha; for Plant response rating, Johnsongrass: scale 0 to 100, 0 no effect, 100 complete control
Excerpt: as §1

[11] = system: crabgrass; experiment: Test A pre-/postemergence greenhouse test; type: in vivo, Digitaria sanguinalis; settings: for Plant response rating, Crabgrass, Large: 0 to 100 scale where 0 is no effect and 100 is complete control; for Crabgrass, Large plant response rating: 0 to 100 scale
Procedure, shortened: as §2

[12] = system: morningglory; experiment: Test C pre-/postemergence test; type: in vivo, Ipomoea coccinea; settings: Postemergence; for Plant response rating (0 to 100), Morningglory: 31 g ai/ha; for Plant response rating, Morningglory: scale 0 to 100, 0 no effect, 100 complete control
Excerpt: as §1

[13] = system: giant foxtail; experiment: Test C pre-/postemergence test; type: in vivo, Setaria faberii; settings: Postemergence; for Plant response rating (0 to 100), Foxtail, Giant: 31 g ai/ha; for Plant response rating, Foxtail, Giant: scale 0 to 100, 0 no effect, 100 complete control
Excerpt: as §1

[14] = system: corn; experiment: Test A pre-/postemergence greenhouse test; type: in vivo, Zea mays; settings: for Plant response rating, Corn: 0 to 100 scale where 0 is no effect and 100 is complete control; for Corn plant response rating: 0 to 100 scale
Procedure, shortened: as §2

[15] = system: Goosegrass; experiment: Test C pre-/postemergence test; type: in vivo, Eleusin indica; settings: Postemergence; for Plant response rating (0 to 100), Goosegrass: 31 g ai/ha; for Plant response rating, Goosegrass: scale 0 to 100, 0 no effect, 100 complete control
Excerpt: as §1

[16] = 250 g ai/ha, scale 0 to 100, 0 no effect, 100 complete control, 13 to 15 days
[17] = Postemergence, 500 g ai/ha, 0 is no effect, 100 is complete control
[18] = Preemergence, 125 g ai/ha, 0 no effect, 100 complete control
[19] = Postemergence, 125 g ai/ha, 0 is no effect, 100 is complete control

CCn1nc(C(F)(F)F)c(C(C)S(=O)(=O)c2cccc[n+]2[O-])c1OCC(F)(F)F (stereo not shown) [Compound 69]
90: Plant response rating, Wheat ([4]; Preemergence, 500 g ai/ha) | Barnyardgrass plant response rating [5, 17] | Crabgrass, Large plant response rating [11, 17]
95: Plant response rating, Ryegrass, Italian ([8]; 250 g ai/ha)
100: Plant response rating, Sedge, Umbrella ([1]; 62 g ai/ha, scale 0 to 100 (0 no effect, 100 complete control)) | Plant response rating, Sedge, Umbrella [1, 16] | Plant response rating, Barnyardgrass ([5]; Preemergence, 500 g ai/ha) | Plant response rating, Crabgrass, Large ([11]; Preemergence, 500 g ai/ha)
40: Plant response rating (0 to 100), Ryegrass, Italian ([8]; 62 g ai/ha) | Plant response rating, Johnsongrass ([10]; 250 g ai/ha) | Crabgrass, Large plant response rating [11, 18] | Plant response rating, Goosegrass ([15]; 250 g ai/ha)
60: Wheat plant response rating [4, 17] | Barnyardgrass plant response rating [5, 18] | Plant response rating, Foxtail, Giant ([13]; 250 g ai/ha) | Plant response rating, Corn ([14]; Postemergence, 125 g ai/ha)
20: Plant response rating, Johnsongrass ([10]; 125 g ai/ha)
50: Plant response rating, Wheat ([4]; Postemergence, 125 g ai/ha) | Wheat plant response rating [4, 18] | Plant response rating, Ryegrass, Italian ([8]; 125 g ai/ha)
0: Plant response rating (0 to 100), Crabgrass, Large [2] | Plant response rating, Crabgrass, Large ([2]; 62 g ai/ha) | Plant response rating, Crabgrass, Large ([2]; 125 g ai/ha) | Plant response rating, Crabgrass, Large ([2]; 250 g ai/ha) | Plant response rating (0 to 100), Velvetleaf ([3]; 31 g ai/ha) | Plant response rating (0 to 100), Velvetleaf ([3]; 62 g ai/ha) | Plant response rating, Velvetleaf ([3]; 125 g ai/ha) | Plant response rating, Velvetleaf ([3]; 250 g ai/ha) | Plant response rating (0 to 100), Surinam Grass ([6]; 31 g ai/ha) | Plant response rating (0 to 100), Surinam Grass ([6]; 62 g ai/ha) | Plant response rating, Surinam Grass ([6]; 125 g ai/ha) | Plant response rating, Surinam Grass ([6]; 250 g ai/ha) | Plant response rating (0 to 100), Corn [7] | Plant response rating, Corn ([7]; 62 g ai/ha) | Plant response rating, Corn ([7]; 125 g ai/ha) | Plant response rating, Corn ([7]; 250 g ai/ha) | Plant response rating (0 to 100), Ryegrass, Italian ([8]; 31 g ai/ha) | Plant response rating (0 to 100), Pigweed ([9]; 31 g ai/ha) | Plant response rating (0 to 100), Pigweed ([9]; 62 g ai/ha) | Plant response rating, Pigweed ([9]; 125 g ai/ha) | Plant response rating, Pigweed ([9]; 250 g ai/ha) | Plant response rating (0 to 100), Johnsongrass [10] | Plant response rating, Johnsongrass ([10]; 62 g ai/ha) | Plant response rating (0 to 100), Morningglory [12] | Plant response rating, Morningglory ([12]; 62 g ai/ha) | Plant response rating, Morningglory ([12]; 125 g ai/ha) | Plant response rating, Morningglory ([12]; 250 g ai/ha) | Plant response rating (0 to 100), Foxtail, Giant [13] | Plant response rating, Foxtail, Giant ([13]; 62 g ai/ha) | Plant response rating, Foxtail, Giant ([13]; 125 g ai/ha) | Corn plant response rating [14, 18] | Plant response rating (0 to 100), Goosegrass [15] | Plant response rating, Goosegrass ([15]; 62 g ai/ha) | Plant response rating, Goosegrass ([15]; 125 g ai/ha)
80: Plant response rating, Barnyardgrass ([5]; Postemergence, 125 g ai/ha) | Plant response rating, Crabgrass, Large ([11]; Postemergence, 125 g ai/ha) | Corn plant response rating [14, 17] | Plant response rating, Corn ([14]; Preemergence, 500 g ai/ha)

CC(c1c(C(F)(F)F)nn(C)c1Cl)S(=O)(=O)c1ccc(Cl)c[n+]1[O-] (racemic) [Compound 40]
75: Plant response rating, Sedge, Umbrella ([1]; 125 g ai/ha, scale 0 to 100, 0 no effect, 100 complete control, 13 to 15 days)
90: Barnyardgrass plant response rating [5, 17] | Plant response rating, Crabgrass, Large ([11]; Preemergence, 500 g ai/ha)
45: Plant response rating, Sedge, Umbrella ([1]; 62 g ai/ha, scale 0 to 100, 0 no effect, 100 complete control, 13 to 15 days) | Plant response rating, Ryegrass, Italian ([8]; 250 g ai/ha)
50: Wheat plant response rating [4, 17]
85: Plant response rating, Sedge, Umbrella [1, 16]
20: Plant response rating, Sedge, Umbrella ([1]; 31 g ai/ha, scale 0 to 100 (0 no effect, 100 complete control)) | Plant response rating, Johnsongrass ([10]; 62 g ai/ha) | Plant response rating, Johnsongrass ([10]; 125 g ai/ha)
80: Barnyardgrass plant response rating [5, 19] | Crabgrass, Large plant response rating [11, 19] | Crabgrass, Large plant response rating [11, 17]
0: Plant response rating (0 to 100), Crabgrass, Large [2] | Plant response rating, Crabgrass, Large ([2]; 62 g ai/ha) | Plant response rating, Crabgrass, Large ([2]; 125 g ai/ha) | Plant response rating, Crabgrass, Large ([2]; 250 g ai/ha) | Plant response rating (0 to 100), Velvetleaf ([3]; 31 g ai/ha) | Plant response rating (0 to 100), Velvetleaf ([3]; 62 g ai/ha) | Plant response rating, Velvetleaf ([3]; 125 g ai/ha) | Plant response rating, Velvetleaf ([3]; 250 g ai/ha) | Wheat plant response rating [4, 18] | Plant response rating (0 to 100), Surinam Grass ([6]; 31 g ai/ha) | Plant response rating (0 to 100), Surinam Grass ([6]; 62 g ai/ha) | Plant response rating, Surinam Grass ([6]; 125 g ai/ha) | Plant response rating, Surinam Grass ([6]; 250 g ai/ha) | Plant response rating (0 to 100), Corn [7] | Plant response rating, Corn ([7]; 62 g ai/ha) | Plant response rating, Corn ([7]; 125 g ai/ha) | Plant response rating, Corn ([7]; 250 g ai/ha) | Plant response rating (0 to 100), Ryegrass, Italian ([8]; 31 g ai/ha) | Plant response rating (0 to 100), Ryegrass, Italian ([8]; 62 g ai/ha) | Plant response rating (0 to 100), Pigweed ([9]; 31 g ai/ha) | Plant response rating (0 to 100), Pigweed ([9]; 62 g ai/ha) | Plant response rating, Pigweed ([9]; 125 g ai/ha) | Plant response rating, Pigweed ([9]; 250 g ai/ha) | Plant response rating (0 to 100), Johnsongrass [10] | Plant response rating (0 to 100), Morningglory [12] | Plant response rating, Morningglory ([12]; 62 g ai/ha) | Plant response rating, Morningglory ([12]; 125 g ai/ha) | Plant response rating, Morningglory ([12]; 250 g ai/ha) | Plant response rating (0 to 100), Foxtail, Giant [13] | Plant response rating, Foxtail, Giant ([13]; 62 g ai/ha) | Plant response rating, Foxtail, Giant ([13]; 125 g ai/ha) | Plant response rating, Foxtail, Giant ([13]; 250 g ai/ha) | Corn plant response rating [14, 19] | Corn plant response rating [14, 18] | Plant response rating, Corn ([14]; Preemergence, 500 g ai/ha) | Plant response rating (0 to 100), Goosegrass [15] | Plant response rating, Goosegrass ([15]; 62 g ai/ha) | Plant response rating, Goosegrass ([15]; 125 g ai/ha) | Plant response rating, Goosegrass ([15]; 250 g ai/ha)
40: Plant response rating, Wheat ([4]; Preemergence, 500 g ai/ha) | Plant response rating, Ryegrass, Italian ([8]; 125 g ai/ha) | Corn plant response rating [14, 17]
70: Barnyardgrass plant response rating [5, 18]
30: Wheat plant response rating [4, 19]
100: Plant response rating, Barnyardgrass ([5]; Preemergence, 500 g ai/ha)
60: Plant response rating, Johnsongrass ([10]; 250 g ai/ha) | Crabgrass, Large plant response rating [11, 18]
